We go through 103 compounds from PubChem BioAssay AID849 (SRMLSC, 2007).

The experiment relates to Saccharomyces cerevisiae lifespan shortening, growth inhibition. The experiment can be described thus: Saccharomyces cerevisiae growth inhibition potency – dose response (AID 849).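 Further: yeast growth read as optical density after two days at 30 degrees C.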

The source made the active and inactive calls. How the calls were made is not given here.

On to `CCOC(=O)c1c(NC(=S)Nc2ccc(Cl)cc2)sc2c1CCN(C)C2`, for which the IC50 is 7.82 µM. To `OCc1ccnc2c(O)cccc12` belongs > 100 µM (inactive); to `Cn1c(=O)c(C(=O)Nc2ncccn2)c(O)c2ccccc21`, 33 µM; to `CCc1oc2ccccc2c1C(=O)c1cc(Br)c(O)c(Br)c1`, 49.2 µM.

Consider `CCCCC(=O)NNC(=S)NC(=O)CCC`, for which the IC50 was 32.3 µM.

For `Cc1cc(O)c(/C=N/Nc2ccc(Cl)cc2)c(=O)o1`, the IC50 was 5.9 µM. To `NNC(=O)c1ccc(COc2ccc3c(c2)CCC3)o1` belongs 15.1 µM. To `CCOc1ccccc1C1CC(c2ccc(Br)cc2)Nc2nc(N)nn21` (stereo not drawn) belongs > 100 µM (inactive); to `CC(C)(C)c1ccc(NC(=O)COC(=O)c2ccc([N+](=O)[O-])s2)cc1`, 34 µM. On to `Cc1ccc2nc3c(nc2c1)-c1ccccc1C3=O`, for which the IC50 is 30.3 µM.

On to `CN1C(=O)/C(=N/OC(=O)c2ccccc2)c2ccccc21`, for which the IC50 is > 100 µM (inactive). Next, `COc1ccc(CCNC(=O)c2cnn3c(C(F)F)cc(C)nc23)cc1OC`: > 100 µM (inactive); `CCCc1ccc(OCC(=O)NNC(=S)NC(=O)c2ccco2)cc1`: 15.1 µM; `Nc1ccc(SC(F)(F)F)cc1C(=O)c1ccccc1`: > 100 µM (inactive).

Take `COCC(C)OC(=O)/C(C#N)=C\c1coc2ccc(C)cc2c1=O` (stereo not drawn): the IC50 is > 100 µM (inactive). `Cc1cc(O)c(/C=N/Nc2cccc(Cl)c2)c(=O)o1`: the IC50 was 40.3 µM. Regarding `C=CCNC(=S)N/N=C(\C)c1ccccn1`, the IC50 is 17.6 µM.

`N/C(Cc1ccc(Cl)cc1)=N\OC(=O)c1cccc2ccccc12`: the IC50 is 41 µM.

Take `c1ccc2c(c1)C(=Nn1cnnc1)c1ccccc1-2`: the IC50 is > 100 µM (inactive). Consider `CC(C)CC(=O)/C(=C\c1ccc(Cl)cc1Cl)n1cncn1`, for which the IC50 was 15.8 µM.

For `O=C(OCn1ncc(Cl)c(Cl)c1=O)c1cccc(C(F)(F)F)c1`, the IC50 was > 100 µM (inactive). Consider `Cc1ncc(CC(=O)n2cc(C(=O)c3cc(Cl)ccc3O)cn2)s1`, for which the IC50 is 12 µM. To `CCOC(=O)c1cc([N+](=O)[O-])c([N+](=O)[O-])cc1NC(C)=O` belongs < 0.098 µM; to `Cc1ccccc1N=Cc1cccc(O)c1O`, 10 µM; to `Cc1ccc(O)c(-c2cc(-c3ccccc3C)[nH]n2)c1`, 24.3 µM. For the compound `Clc1ccc(N/N=C/c2cccnc2)cc1`, the IC50 was > 100 µM (inactive).

For the compound `Cc1ccc(N=Cc2cccc(O)c2O)c(C)c1`, the IC50 is 13.1 µM. To `O=C1Cc2ccccc2C(=O)N1CCc1ccccc1` belongs > 100 µM (inactive); to `COc1ccc(C(=O)/C=C/N2CCCCC2)cc1OC`, 21.4 µM; to `CCOC(=O)c1cnc(-n2nc(C)cc2C)nc1NNc1cc(C)nc(-c2ccccc2)n1`, > 100 µM (inactive). `Cc1ccc(C(=O)Oc2ccc(Cl)c3cccnc23)cc1[N+](=O)[O-]`: the IC50 was 47.4 µM. `CCCCCCCOC(=O)C[N+](C)(C)CCOC1CC2CCC1(C)C2(C)C` (stereo not drawn): the IC50 is 28.4 µM.

For the compound `CCN1/C(=C/c2ccc3cccc(C)c3[n+]2CC)Sc2ccccc21`, the IC50 is 9.8 µM. In the case of `Nc1nsc2ccccc12`, the IC50 is 24.3 µM. Regarding `Cc1nc2c(F)c(F)c(C(F)(F)F)c(F)c2[nH]1`, the IC50 is > 100 µM (inactive). As to `NC(N)=N/N=C/c1ccc(OCc2ccc(Cl)cc2)cc1`, the IC50 is 48.4 µM. `Cc1nc2ccc(C(=O)O)cc2[nH]1`: the IC50 is > 100 µM (inactive). On to `COc1ccc(C(=O)NC(=S)NNC(=O)c2cnccn2)cc1`, for which the IC50 was 16.3 µM.

With `c1ccc2nc3c(nc2c1)[nH]c1ccccc13`, the IC50 is 25 µM. To `Cc1ccc2nc(-c3ccc(NS(=O)(=O)c4ccc(F)c(F)c4)cc3)sc2c1` belongs > 100 µM (inactive); to `Oc1ccc(-c2csc(-c3ccccc3)n2)cc1O`, 27.5 µM; to `Cc1cc(C)nc(N/N=C/C2=C(N3CCOCC3)C(=C\c3ccc(Cl)cc3)/CC2)n1`, > 100 µM (inactive). Next, `CC(C)CNC(=O)CN(C1CCCCC1)S(C)(=O)=O`: > 100 µM (inactive). As to `O=C(OCn1ncc(Cl)c(Cl)c1=O)c1ccccc1Cl`, the IC50 is 20.7 µM. On to `Cc1ccc(-c2nc(N)sc2-c2ccccc2)cc1C`, for which the IC50 is > 100 µM (inactive). To `COc1ccc(NCc2ccc([N+](=O)[O-])s2)c(OC)c1` belongs 41.1 µM; to `CCOC(=O)c1c(NC(=O)C(C)Sc2cccc[n+]2[O-])sc2c1CCN(Cc1ccccc1)C2` (stereo not drawn), 12.4 µM.

As to `Oc1ccc(N=Nc2cccc(Cl)c2)cc1C=Nc1ccc(N2CCOCC2)cc1`, the IC50 was > 100 µM (inactive).

In the case of `O/N=C/c1ccc(OCc2ccccc2)c(Br)c1`, the IC50 is > 100 µM (inactive).

As to `CCOC(=O)c1cnc(-n2nc(C)cc2C)nc1NC1CCCCC1`, the IC50 was 20 µM.

As for `Oc1c(Br)cc(Br)cc1C=Nc1ccc2c(c1)OCO2`, the IC50 was > 100 µM (inactive). To `CCOc1cc(C2CC(=O)N3CN(C4CCCCC4)CSC3=C2C#N)ccc1O` (stereo not drawn) belongs > 100 µM (inactive); to `COc1cc(C(=O)NC(=S)NNC(=O)c2cnccn2)cc(OC)c1OC`, 12.8 µM. With `O=c1oc2ccccc2c(N2CCCC2)c1CN1CCCC1`, the IC50 is > 100 µM (inactive). For the compound `CCCOC(=O)c1ccc(Oc2cn[nH]c2-c2ccc(OCC)cc2O)cc1`, the IC50 was > 100 µM (inactive).

As for `Cc1ccc(C(=O)O)cc1N=Cc1cc(Br)cc(Br)c1O`, the IC50 was 37.4 µM. Next, `CN(C)c1ccc(/C=C/c2ccc3ccccc3[n+]2C)cc1`: 26.4 µM; `CCCCCCOC(=O)Sc1nc2ccccc2o1`: 20.2 µM; `COc1ccc2nc(NC(=S)N(C)C)sc2c1`: > 100 µM (inactive).

In the case of `O=[N+]([O-])c1ccc(O)c2ncccc12`, the IC50 was 0.575 µM. Next, `COc1ccc(-c2cc(C(=O)N3CCN(c4ncccn4)CC3)c3ccccc3n2)c(OC)c1`: 49.8 µM; `Nc1ccc(C(=O)OCC(=O)Nc2ccc3c(c2)OCO3)cc1[N+](=O)[O-]`: > 100 µM (inactive); `Cc1ccc(-n2c(Cl)c(Cl)nc(Cl)c2=O)cc1`: 14.6 µM. With `O=C1c2ccccc2C(=O)C1c1ccc2ccccc2n1`, the IC50 is > 100 µM (inactive). Next, `Clc1ccccc1N/N=C/c1ccc2c(c1)OCO2`: 32.5 µM; `COc1cccc(C(=O)O/N=C(\N)Cc2ccc(Cl)cc2)c1`: 4.09 µM. For the compound `O=C1C(=O)c2c(C(=O)c3ccccc3)coc2-c2ccccc21`, the IC50 was 13.4 µM. Turning to `O=[N+]([O-])c1cc(/C=N/O)ccc1Sc1ccccc1`, the IC50 was > 100 µM (inactive). Next, `N#C/C(=N/O)c1nc(-c2ccc(F)cc2)cs1`: 24.9 µM.

As for `N/C(=N\OC(=O)c1ccc(Cl)cc1Cl)c1ccccc1`, the IC50 was > 100 µM (inactive). Next, `CSC1=NSC2=NC(=O)/C(=C\c3coc4ccccc4c3=O)C(=N)N12`: > 100 µM (inactive); `CCC1CCCCN1C(=O)CSc1nnc(-c2ccc(OC)cc2)o1` (stereo not drawn): > 100 µM (inactive); `CC(C)Sc1nc(N)nc(-c2cccs2)c1C#N`: > 100 µM (inactive).

`C/C(=N\Nc1ccc([N+](=O)[O-])cc1)c1ccc(N)cc1`: the IC50 is 40.2 µM. To `C/C(=N\Nc1ccc(Cl)cc1)c1ccccn1` belongs 43.5 µM; to `CCc1cc2c(=O)[nH]c(-c3ccccn3)nc2s1`, 19.2 µM; to `CC(C)(C)N/N=C/c1cc(Cl)cc([N+](=O)[O-])c1O`, 12.9 µM. Next, `CCCCOc1ccc(C(=O)NNC(=S)NC(=O)CC)cc1`: 41.5 µM; `Clc1ccc(COC(Cn2ccnc2)c2ccc(Cl)cc2Cl)cc1` (stereo not drawn): 0.809 µM; `Clc1ccc2[nH]c3c(c2c1)CCc1cn[nH]c1-3`: 12.5 µM.

Consider `O=C(O)c1cc2ccc3ccccc3c2oc1=O`, for which the IC50 is 20.6 µM.

Consider `Oc1c(C(Nc2nc3ccccc3s2)c2ccco2)ccc2cccnc12` (stereo not drawn), for which the IC50 was > 100 µM (inactive).

In the case of `C=CCSc1nnc2nc3c(nn12)c1cc(C)ccc1n3CC=C`, the IC50 is > 100 µM (inactive). On to `N/C(Cc1ccc(Cl)cc1)=N\OC(=O)C1CCCCC1`, for which the IC50 is 11.5 µM. To `O=c1[nH]c(Nc2ccccc2)cc2ccccc12` belongs > 100 µM (inactive); to `CNC(=S)N/N=C(\C)c1ccc(N2CCOCC2)cc1`, > 100 µM (inactive).

On to `O=c1c2c([N+](=O)[O-])cc([N+](=O)[O-])cc2sn1-c1ccc(Br)cc1`, for which the IC50 is > 100 µM (inactive). Next, `Cc1cc(N2CCN(C(=O)c3ccco3)CC2)n2ncc(-c3ccccc3)c2n1`: > 100 µM (inactive); `O=C(O)CSc1cccc[n+]1[O-]`: 33.9 µM. Next, `O=C(O)c1cc2c(s1)-c1ccccc1OC2`: 42.2 µM; `O=C(O)c1ccc2c3c(ncnc13)-c1ccccc1C2=O`: 1.5 µM; `CC(=O)NC(CCS(C)(=O)=O)C(=O)Nc1ccc2c(c1)OCO2` (stereo not drawn): > 100 µM (inactive). On to `CCc1nc2ccccc2c(=O)n1NC(=O)c1c(O)c2cccc3c2n(c1=O)CCC3`, for which the IC50 is > 100 µM (inactive).

`COCCN1CSC(=S)N(Cc2ccco2)C1`: the IC50 was 20.1 µM.

With `N/C(Cc1ccc(Cl)cc1Cl)=N\OC(=O)c1cccs1`, the IC50 was 0.78 µM. For the compound `O=C(O)c1cc2c(s1)-c1ccccc1CC2`, the IC50 is 30.5 µM. To `Oc1ccc2ccccc2c1N=Nc1ccccn1` belongs 35.2 µM; to `O=C(/C=C/c1ccccc1)c1cc(Br)ccc(=O)c1O`, 10.1 µM; to `Cc1ccc(-c2nn(C(C)(C)C)c3ncnc(N)c23)cc1`, 1.72 µM. Next, `O=C1C=C(c2ccc(Cl)cc2)C(=O)N1Nc1ccccc1`: 4.66 µM; `O=C1CN(CC(=O)N2CCCCC2)c2ccccc2O1`: 43.3 µM; `Cc1cc(C(=O)N/N=C/c2cccc([N+](=O)[O-])c2O)n[nH]1`: > 100 µM (inactive). To `C=C(C)COc1ccc(-c2[nH]ncc2-c2ccccc2)c(O)c1` belongs 20.4 µM.

As a reminder, the IC50 is the concentration that gives 50% inhibition.
